Source: patent US8685924B2, “Preventives/remedies for stress urinary incontinence and method of screening the same” (Takeda Pharmaceutical Company Limited, priority 2004, dated 2014)

Columns and labels:
Type in all cases: in vivo, rat
[1] = system: urethane-anesthetized female rats; assay: Antagonism of the leak point pressure increase by WAY-161503 / WAY-163909, direct bladder compression method (Example 4); conditions: agonist 0.3 mg/kg, i.v., antagonist: solvent, mean ± SEM
Protocol: (§1) SD female rats (body weight 180-350 g) were anesthetized with urethane (Wako Pure Chemical Industries, Ltd.), and halothane (Takeda Pharmaceutical Company Limited) anesthesia was added when necessary during operation.
(§2) The spinal cord was transected at T8-9 level to eliminate the reflex voiding. The lower abdomen was incised in the median line, a catheter for intravesical pressure measurement (PE-90, Clay Adams) was inserted into the bladder and secured with a ligature, and the intravesical pressure was measured via a pressure transducer. Urine was emptized in advance by bilaterally pressing the bladder with two swabs, and a 0.1% Evans blue (Merck) solution (0.4 mL) was injected into the bladder. The bladder was gradually compressed bilaterally with two swabs, and the intravesical pressure upon saline leakage from the urethral orifice was measured and defined as a leak point pressure. The measurement of the leak point pressure was repeated, and the average value of the final five stable measures was taken as the value before drug administration. Thereafter, the drug was intravenously administered, the leak point pressure was measured again 20 min later, and the value after the drug administration was determined. DOI, mCPP and eltoprazine were dissolved in saline, and other drugs were dissolved in DMA/PEG400 (1:1), and intravenously administered at 1 ml/kg and 0.5 mg/kg, respectively. Depending on the experiment, RS-102221 or SB221284 (showing serotonin 5-HT2C receptor antagonist activity) was administered, 5 min later, WAY-161503 or WAY-163909 was administered, leak point pressure was measured 10 min later, and a competitive assay with the action of WAY-161503 or WAY-163909 was performed. RS-102221 and SB221284 were both dissolved in DMA/PEG400 (1:1), and intravenously administered at 0.5 ml/kg.

[2] = system: urethane-anesthetized female rats; assay: Urethral contractile responses induced by intravesical pressure increase (Example 5); conditions: for urethral contractile responses before administration: baseline; for urethral contractile responses before administration / urethral contractile responses after administration: mean ± SEM of 5 cases; for urethral contractile responses after administration: 5 min later; for effect on urethral contractile responses during elevation of intravesical pressure: intravenous, duloxetine 10 mg/kg, WAY161503 0.3 mg/kg
Protocol: (§3) SD female rats (body weight 180-350 g) were anesthetized with urethane (Wako Pure Chemical Industries, Ltd.), and the spinal cord was transected at T8-9 level to eliminate the reflex voiding.
Halothane (Takeda Pharmaceutical Company Limited) anesthesia was added when necessary during operation. After laparotomy, the bladder neck was tied with a suture thread and then a catheter (PE-90, Clay Adams) was inserted into the bladder and secured with a ligature. The other end of the bladder catheter was connected to a pressure transducer and saline storage reservoir (60 ml syringe) via a three-way stopcock. A microchip-transducer-catheter (SPR-524, Millar Instruments Inc.) was inserted from the meatus urethra. toward the bladder. Using the scale written on the catheter surface, the transducer part was set in the urethra at 12.5-15.0 mm from the urethral orifice with its side-mounted sensor facing the inner urethral surface in the 3 o'clock position.
Topical pressure changes in the urethra (hereinafter to be conveniently indicated as intraurethral pressure) measured by a microchip-transducer were input in a computer via an amplifier (blood pressure amplification unit AP-641G; NIHON KODEN) and an analog-to-digital converter (MP-100; biopack; sampled at 500 Hz) and recorded on a hard disc. […] The response of the urethra induced by the intravesical pressure increase was measured 3 times and the average of the final two measures was taken as the value before the drug administration.
The evaluation parameters were a resting intraurethral pressure and a reflex urethral contractile responses. An average intraurethral pressure per 1 sec was calculated, and the value immediately before intravesical pressure increase was taken as the resting intraurethral pressure, and the value obtained by subtracting the resting intraurethral pressure from the maximum value during intravesical pressure increase was taken as the urethral responses. After measurement of the response before drug administration, WAY-161503 (0.3 mg/kg), which is a serotonin 5-HT2C receptor agonist, or duloxetine (10 mg/kg) was intravenously administered, the intravesical pressure was increased again 5 min later, and the responses of the urethra were measured. The both drugs were dissolved in DMA-PEG400 (1:1), and administered at 0.5 ml/kg.

[3] = system: urethane-anesthetized female rats; assay: Leak point pressure by direct compressing of the bladder (Example 4); conditions: for leak point pressure after drug administration / leak point pressure increase / leak point pressure before drug administration: i.v., mean ± SEM; for leak point pressure after drug administration: 20 min later; for leak point pressure before drug administration: baseline; for effect on leak point pressure: intravenous administration
Protocol: as §1, §2

[4] = system: urethane-anesthetized female rats; assay: Leak point pressure by intravesical pressure-clamp method (Example 6); conditions: for leak point pressure after drug administration / leak point pressure before drug administration: i.v., mean ± SEM; for leak point pressure after drug administration: 10 min later; for leak point pressure before drug administration: baseline; for effect on leak point pressure: intravesical pressure-clamp method
Protocol: as §3
Halothane (Takeda Pharmaceutical Company Limited) anesthesia was added when necessary during operation. After laparotomy, the bladder neck was tied with a suture thread and then a catheter (PE-90, Clay Adams) was inserted into the bladder and secured with a ligature. The other end of the bladder catheter was connected to a pressure transducer and saline storage reservoir (60 ml syringe) via a three-way cock.
Changes in the intravesical pressure measured by a transducer were input in a computer via an amplifier (blood pressure amplification unit AP-641G; NIHON KODEN) and an analog-to-digital cinverter (MP-100; biopack) and recorded on a hard disc. The intravesical pressure was raised for 90 sec by setting the saline storage reservoir at a given height, and the presence or absence of saline leakage from the urethral orifice was observed. The intravesical pressure was raised every 2.5 cmH2O and, after 90 sec observation period, the intravesical pressure was once returned to 0 cmH2O, after which the next step was performed. The intravesical pressure at which the saline leakage from the urethral orifice was observed was taken as the leak point pressure. The measurement of the leak point pressure was repeated and the average of the final three measures was taken as the value before the drug administration. The drug was intravenously administered, and the leak point pressure was measured again 10 min later. The drug was dissolved in DMA-PEG400 (1:1), and administered at 0.5 ml/kg.

For `O=C1Nc2cc(Cl)c(Cl)cc2N2CCNCC12` (stereo not drawn) [WAY-161503], the “leak point pressure after drug administration” value [1] was 87.1 ± 4.3 cmH2O, the “leak point pressure increase” value [1] was 17.4 ± 1.9 cmH2O and the “leak point pressure before drug administration” value ([1]; baseline) was 69.7 ± 3.9 cmH2O. For the same compound, the “urethral contractile responses before administration” value ([2]; increase in intravesical pressure to 25 cmH2O, dose group 0.3 mg/kg i.v.) was 7.0 ± 1.4 cmH2O, the “urethral contractile responses before administration” value ([2]; increase in intravesical pressure to 50 cmH2O, dose group 0.3 mg/kg i.v.) was 12.8 ± 2.4 cmH2O and the “urethral contractile responses after administration” value ([2]; increase in intravesical pressure to 25 cmH2O, 0.3 mg/kg i.v.) was 11.3 ± 1.8 cmH2O. For the same compound, the “urethral contractile responses after administration” value ([2]; increase in intravesical pressure to 50 cmH2O, 0.3 mg/kg i.v.) was 19.2 ± 3.4 cmH2O, the “effect on urethral contractile responses during elevation of intravesical pressure” value [2] was “significant increase in the urethral contractile responses” and the “leak point pressure after drug administration” value ([3]; 0.03 mg/kg) was 62.0 ± 5.8 cmH2O. The “leak point pressure increase” value ([3]; 0.03 mg/kg) was 7.1 ± 2.4 cmH2O, the “leak point pressure after drug administration” value ([3]; 0.1 mg/kg) was 66.1 ± 2.8 cmH2O and the “leak point pressure increase” value ([3]; 0.1 mg/kg) was 11.5 ± 1.8 cmH2O. For the same compound, the “leak point pressure after drug administration” value ([3]; 0.3 mg/kg) was 77.7 ± 3.6 cmH2O, the “leak point pressure increase” value ([3]; 0.3 mg/kg) was 22.0 ± 3.4 cmH2O and the “leak point pressure before drug administration” value ([3]; dose group 0.03 mg/kg) was 54.9 ± 6.1 cmH2O. For the same compound, the “leak point pressure before drug administration” value ([3]; dose group 0.1 mg/kg) was 54.7 ± 2.5 cmH2O, the “leak point pressure before drug administration” value ([3]; dose group 0.3 mg/kg) was 55.7 ± 3.8 cmH2O and the “effect on leak point pressure” value [3] was “dose-dependently increased the leak point pressure”. The “leak point pressure after drug administration” value ([4]; 0.01 mg/kg) was 37.3 ± 3.5 cmH2O, the “leak point pressure after drug administration” value ([4]; 0.03 mg/kg) was 41.2 ± 3.0 cmH2O and the “leak point pressure after drug administration” value ([4]; 1 mg/kg) was 43.6 ± 3.2 cmH2O. The “leak point pressure before drug administration” value ([4]; dose group 0.01 mg/kg) was 33.4 ± 3.4 cmH2O, the “leak point pressure before drug administration” value ([4]; dose group 0.03 mg/kg) was 34.8 ± 3.2 cmH2O and the “leak point pressure before drug administration” value ([4]; dose group 1 mg/kg) was 34.8 ± 3.0 cmH2O. For the same compound, the “effect on leak point pressure” value [4] was “increased the leak point pressure”.
For `CNCC[C@H](Oc1cccc2ccccc12)c1cccs1` [duloxetine], the “urethral contractile responses before administration” value ([2]; increase in intravesical pressure to 25 cmH2O, dose group 10 mg/kg i.v.) was 8.5 ± 0.5 cmH2O, the “urethral contractile responses before administration” value ([2]; increase in intravesical pressure to 50 cmH2O, dose group 10 mg/kg i.v.) was 13.4 ± 2.1 cmH2O and the “urethral contractile responses after administration” value ([2]; increase in intravesical pressure to 25 cmH2O, 10 mg/kg i.v.) was 11.4 ± 0.6 cmH2O. The “urethral contractile responses after administration” value ([2]; increase in intravesical pressure to 50 cmH2O, 10 mg/kg i.v.) was 17.8 ± 2.2 cmH2O, the “effect on urethral contractile responses during elevation of intravesical pressure” value [2] was “enhanced the urethral contractile responses” and the “leak point pressure after drug administration” value ([3]; 0.01 mg/kg) was 60.5 ± 5.1 cmH2O. The “leak point pressure increase” value ([3]; 0.01 mg/kg) was 2.4 ± 2.6 cmH2O, the “leak point pressure after drug administration” value ([3]; 0.03 mg/kg) was 67.8 ± 2.9 cmH2O and the “leak point pressure increase” value ([3]; 0.03 mg/kg) was 6.5 ± 1.6 cmH2O. For the same compound, the “leak point pressure after drug administration” value ([3]; 0.1 mg/kg) was 72.6 ± 3.4 cmH2O, the “leak point pressure increase” value ([3]; 0.1 mg/kg) was 9.3 ± 1.2 cmH2O and the “leak point pressure after drug administration” value ([3]; 0.3 mg/kg) was 73.3 ± 3.9 cmH2O. For the same compound, the “leak point pressure increase” value ([3]; 0.3 mg/kg) was 8.8 ± 2.1 cmH2O, the “leak point pressure after drug administration” value ([3]; 1 mg/kg) was 75.0 ± 4.0 cmH2O and the “leak point pressure increase” value ([3]; 1 mg/kg) was 13.9 ± 1.8 cmH2O. For the same compound, the “leak point pressure before drug administration” value ([3]; dose group 0.01 mg/kg) was 58.1 ± 6.0 cmH2O, the “leak point pressure before drug administration” value ([3]; dose group 0.03 mg/kg) was 61.3 ± 3.3 cmH2O and the “leak point pressure before drug administration” value ([3]; dose group 0.1 mg/kg) was 63.3 ± 3.8 cmH2O. The “leak point pressure before drug administration” value ([3]; dose group 0.3 mg/kg) was 64.5 ± 3.5 cmH2O, the “leak point pressure before drug administration” value ([3]; dose group 1 mg/kg) was 61.1 ± 3.4 cmH2O and the “effect on leak point pressure” value [3] was “increased the leak point pressure”. For the same compound, the “leak point pressure after drug administration” value ([4]; 0.001 mg/kg) was 38.2 ± 3.7 cmH2O, the “leak point pressure after drug administration” value ([4]; 0.01 mg/kg) was 42.8 ± 4.9 cmH2O and the “leak point pressure before drug administration” value ([4]; dose group 0.001 mg/kg) was 36.5 ± 4.2 cmH2O. For the same compound, the “leak point pressure before drug administration” value ([4]; dose group 0.01 mg/kg) was 37.0 ± 4.5 cmH2O and the “effect on leak point pressure” value [4] was “increased the leak point pressure”.
